The values below are quoted from earlier work in US6693094B2, “Biguanide and sulfonylurea formulations for the prevention and treatment of insulin resistance and type 2 diabetes mellitus” (Chrono RX LLC, priority 2001, dated 2004).

For data set [1] the following is noted: in vivo.
For data set [2] the following is noted: in vivo. This is another data set of the same source.
For the next data set, the target named is sulfonylurea receptor (Homo sapiens, UniProt Q09428). Conditions: sulfonylurea receptors of the β-cell membrane.
Chain of sulfonylurea receptor (Q09428 whole entry): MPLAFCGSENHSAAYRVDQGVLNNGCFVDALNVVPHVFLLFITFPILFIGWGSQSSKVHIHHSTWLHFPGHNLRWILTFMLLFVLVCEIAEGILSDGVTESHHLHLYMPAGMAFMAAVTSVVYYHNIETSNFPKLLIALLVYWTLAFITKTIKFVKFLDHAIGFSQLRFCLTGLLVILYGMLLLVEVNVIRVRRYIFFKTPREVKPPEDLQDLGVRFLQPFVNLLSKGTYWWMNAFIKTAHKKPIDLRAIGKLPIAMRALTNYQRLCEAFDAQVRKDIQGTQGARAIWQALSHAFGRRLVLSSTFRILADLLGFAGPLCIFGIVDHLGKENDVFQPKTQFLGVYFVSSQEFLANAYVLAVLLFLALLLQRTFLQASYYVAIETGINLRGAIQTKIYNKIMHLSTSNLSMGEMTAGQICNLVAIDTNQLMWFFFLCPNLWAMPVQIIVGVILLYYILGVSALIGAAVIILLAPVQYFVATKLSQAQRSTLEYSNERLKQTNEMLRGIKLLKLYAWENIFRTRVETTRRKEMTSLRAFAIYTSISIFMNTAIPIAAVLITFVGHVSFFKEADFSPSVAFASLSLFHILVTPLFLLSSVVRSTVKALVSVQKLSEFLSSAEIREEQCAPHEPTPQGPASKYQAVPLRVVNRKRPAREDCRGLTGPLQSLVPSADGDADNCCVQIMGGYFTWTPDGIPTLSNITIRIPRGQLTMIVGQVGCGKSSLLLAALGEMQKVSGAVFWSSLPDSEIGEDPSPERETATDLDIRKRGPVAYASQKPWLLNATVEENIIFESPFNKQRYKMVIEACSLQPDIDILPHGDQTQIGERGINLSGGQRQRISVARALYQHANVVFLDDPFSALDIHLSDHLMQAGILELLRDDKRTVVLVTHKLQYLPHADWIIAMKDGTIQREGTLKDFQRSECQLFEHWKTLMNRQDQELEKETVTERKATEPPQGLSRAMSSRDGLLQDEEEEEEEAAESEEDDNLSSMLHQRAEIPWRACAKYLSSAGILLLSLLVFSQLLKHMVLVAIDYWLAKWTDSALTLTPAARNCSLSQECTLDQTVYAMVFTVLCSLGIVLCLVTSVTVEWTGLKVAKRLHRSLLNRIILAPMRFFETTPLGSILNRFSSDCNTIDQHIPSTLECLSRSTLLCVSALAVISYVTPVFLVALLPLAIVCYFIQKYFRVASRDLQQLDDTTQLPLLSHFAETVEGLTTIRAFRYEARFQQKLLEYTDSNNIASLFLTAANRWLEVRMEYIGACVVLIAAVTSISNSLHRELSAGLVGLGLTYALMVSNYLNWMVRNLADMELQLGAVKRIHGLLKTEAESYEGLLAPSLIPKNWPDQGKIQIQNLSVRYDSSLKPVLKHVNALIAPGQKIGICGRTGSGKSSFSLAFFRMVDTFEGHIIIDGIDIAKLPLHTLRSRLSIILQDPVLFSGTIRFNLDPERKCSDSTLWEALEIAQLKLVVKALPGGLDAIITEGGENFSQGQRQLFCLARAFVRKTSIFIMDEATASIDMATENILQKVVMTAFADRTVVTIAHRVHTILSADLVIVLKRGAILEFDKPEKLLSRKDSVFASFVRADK
Chain of sulfonylurea receptor (Q14654 whole entry partner): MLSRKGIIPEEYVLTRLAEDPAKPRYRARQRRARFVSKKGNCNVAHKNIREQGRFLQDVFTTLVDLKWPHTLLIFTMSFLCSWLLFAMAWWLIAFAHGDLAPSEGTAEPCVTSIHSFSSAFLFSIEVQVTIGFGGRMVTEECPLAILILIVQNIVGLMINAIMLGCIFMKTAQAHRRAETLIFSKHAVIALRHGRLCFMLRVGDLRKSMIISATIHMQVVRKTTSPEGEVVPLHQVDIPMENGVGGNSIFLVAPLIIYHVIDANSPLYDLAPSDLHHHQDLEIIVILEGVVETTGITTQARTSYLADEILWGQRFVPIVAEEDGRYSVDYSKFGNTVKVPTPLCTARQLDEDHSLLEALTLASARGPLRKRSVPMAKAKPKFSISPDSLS
For data set [3] the following is noted: in vivo. The source holds these as a separate data set.
Data set [4] relates to insulin secreting β-cells. Conditions: hyperglycemic conditions.
Data set [5] deals with patients with essential hypertension and coronary artery disease. As to conditions: 60 mg twice daily for 8 weeks, oral.
A further data set relates to pancreatic islets. As to conditions: islets exposed to IL-1 beta.
Data set [6] concerns insulin-resistant type 2 diabetes patients.
Data set [7] relates to obese type 2 diabetes patients. As to conditions: 600 mg/day, used alone.

As to `CC(=O)c1ccc(S(=O)(=O)NC(=O)NC2CCCCC2)cc1` [Acetohexamide], in [1], the “Duration of Action” value is 12 to 18 h.
For the compound `CCCNC(=O)NS(=O)(=O)c1ccc(Cl)cc1` [Chlorpropamide], the “Duration of Action” value in [1] was 60 h.
As to `[Cr]` [Cr, Chromium], the “reduction of metformin requirements” value in [2] is “more than one-half”.
For the compound `CCC1=C(C)CN(C(=O)NCCc2ccc(S(=O)(=O)NC(=O)N[C@H]3CC[C@H](C)CC3)cc2)C1=O` [Glimepiride], in [1], the “Duration of Action” value was 16 to 24 h.
In the case of `Cc1cnc(C(=O)NCCc2ccc(S(=O)(=O)NC(=O)NC3CCCCC3)cc2)cn1` [Glipizide], the “concentration range that saturates receptors” value on sulfonylurea receptor is on record as “low nM”. Further, in data set [1], the “Duration of Action” value is 12 to 24 h.
Regarding `COc1ccc(Cl)cc1C(=O)NCCc1ccc(S(=O)(=O)NC(=O)NC2CCCCC2)cc1` [Glyburide], the “glycolytic flux and lactate production” value with perfused rat hearts is “dramatic increase”.
Turning to `CN(C)C(=N)N=C(N)N` [Metformin, metformin], in data set [3], the “frequency of lactic acidosis” value is listed as 3 cases per 100,000 patient-years and the “incidence of lactic acidosis” value is reported as 0.03 /1,000 patient-years exposure.
For `CCCCNC(=O)NS(=O)(=O)c1ccc(C)cc1` [Tolbutamide], the “Duration of Action” value in [1] is 6 to 12 h.
Regarding `O=C1O[C@H]([C@@H](O)CO)C(O)=C1O` [ascorbate, ascorbic acid], the “decrease of cellular insulin glycation” value in data set [4] is on record as 66-80%.
In the case of `COC1=C(OC)C(=O)C(C/C=C(\C)CC/C=C(\C)CC/C=C(\C)CC/C=C(\C)CC/C=C(\C)CC/C=C(\C)CC/C=C(\C)CC/C=C(\C)CC/C=C(\C)CCC=C(C)C)=C(C)C1=O` [coenzyme Q10, Ubiquinone], in data set [5], the HDL-cholesterol result is given as “increased”; the “systolic and diastolic blood pressure, fasting and 2-h plasma insulin, glucose, triglycerides, lipid peroxides, malondialdehyde and diene conjugates” value is on record as “all reduced”.
With `NC(=O)c1cccnc1` [nicotinamide, Nicotinamide], the “concentration of maximum recovery of glucose-induced insulin secretion” value in the data set on pancreatic islets is 25 mmol/L.
With `O=S(=O)([O-])[O-].[O]=[V+2]` [vanadyl sulfate], in data set [6] (100 mg/day for 3 weeks), the “time effects are sustained after discontinuation” value is “up to 2 weeks”. Besides, the “hepatic and peripheral insulin sensitivity” value in data set [6] (100 mg/day, after 3 weeks) is on record as “appear to improve”.
With vitamin E, the “insulin efficiency and fibrinolysis” value in [7] was “may further worsen insulin efficiency and increase fibrinolysis”.
